Source: patent publication US20240287033A1, “DEGRADERS OF TISSUE TRANSGLUTAMINASE 2 (TG2)” (Northwestern University, priority 2023, published 2024)
“Also recorded” adds a separate entry of the source. Read-outs that look alike come from different tables or passages of the source.

Tests used:
OVCAR5 cells [1] = assay: Wound-healing (scratch) assay, OVCAR5; format: cell-based
Procedure: (§1) For the scratch assay, confluent 6-well plates were scratched with a pipette tip, washed and treated with compounds or vehicle. The plate was photographed at set time points and the area of wound closure was quantified with ImageJ. Cell migration was assessed by using Transwell inserts (8 μm pore size, Merck-Millipore, Watford, UK). Briefly, 15,000 cells were seeded in the upper chambers of trans-wells in serum-free media containing compounds or control, while media containing 10% serum was added to the lower chamber. After 18 hours, cells invaded through the transwells were fixed with warm 4% PFA for 20 min at room temperature and stained with crystal violet for 3 min. The membranes were removed, mounted on cover slides and cells were counted using a microscope at 40× magnification.

SKOV3 cells [2] = assay: Transwell migration assay, SKOV3; format: cell-based
Procedure: as §1

SKOV3 cells [3] = assay: Wound-healing (scratch) assay, SKOV3; format: cell-based
Procedure: as §1

TG2 [4] = molecular target: T1, TG2 (Homo sapiens, UniProt P21980); assay: Western blot analysis of TG2 degradation in SKOV3 cells; format: cell-based; details: for TG2 degradation with VHL ligand as competitive inhibitor: 10 μM compound 6 hrs, 10 μM VHL ligand; for TG2 degradation (western blot): 6 hours, up to 10 μM; for TG2 levels after longer treatment (western blot): 24 hours, single dosing; for TG2 levels at 24 hours after repeated dosing: dosed every 6-8 hours over 24 hours, 1 or 10 μM; for time of maximal TG2 degradation: higher concentrations (10 and 30 μM)
T1 construct: tested in multiple ovarian cancer cell lines that express TG2 for their ability to degrade the protein; endogenous in cells; host or cells: OVCAR5 and SKOV3 ovarian cancer cells
T1 sequence (P21980 1-687): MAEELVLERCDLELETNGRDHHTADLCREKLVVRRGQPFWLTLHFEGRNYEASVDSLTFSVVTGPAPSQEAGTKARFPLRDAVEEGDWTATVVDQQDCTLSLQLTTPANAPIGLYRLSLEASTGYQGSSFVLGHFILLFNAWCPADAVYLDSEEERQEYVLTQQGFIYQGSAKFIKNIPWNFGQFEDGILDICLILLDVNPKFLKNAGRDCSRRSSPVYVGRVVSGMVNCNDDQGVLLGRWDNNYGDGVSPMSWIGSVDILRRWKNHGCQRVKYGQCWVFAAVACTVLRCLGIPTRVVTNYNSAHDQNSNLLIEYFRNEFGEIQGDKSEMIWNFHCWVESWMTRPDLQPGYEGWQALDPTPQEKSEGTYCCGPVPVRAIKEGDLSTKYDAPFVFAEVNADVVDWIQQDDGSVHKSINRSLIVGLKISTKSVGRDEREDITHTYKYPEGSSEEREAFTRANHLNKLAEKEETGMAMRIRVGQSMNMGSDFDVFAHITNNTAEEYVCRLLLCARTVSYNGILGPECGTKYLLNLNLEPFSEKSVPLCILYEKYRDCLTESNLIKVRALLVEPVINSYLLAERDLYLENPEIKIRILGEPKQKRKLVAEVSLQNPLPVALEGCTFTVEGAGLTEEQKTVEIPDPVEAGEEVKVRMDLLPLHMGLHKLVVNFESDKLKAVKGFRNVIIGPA
Procedure: (§2) SKOV3 cells were purchased from ATCC. OVCAR5 cells were obtained from Dr. Marcus Peter at Northwestern University. Cells were maintained at 37° C. in an environment of 5% CO2 and 100% humidity. The media used for culturing the cell lines are included in Table 1. Cells lines used in all experiments were at low-passages and were confirmed to be pathogen and mycoplasma-free by Charles River Animal Diagnostic Services. Cell lines were authenticated by IDEXX BioAnalytics with short tandem repeat (STR) profiling. MG132 was obtained from SelleckChem. Anti-TG2 antibody (cat #: MAB3839-I-100UG) was purchased from Millipore Sigma, GAPDH antibody (cat #: H86504M) was purchased from Meridian Bioscience.
(§3) Briefly, SKOV3 and OVCAR5 cells were seeded on 6 cm dishes and treated with different concentrations of compounds at different time points. Proteins were extracted using RIPA buffer and quantified using the Bradford assay. After gel electrophoresis and transfer, PDVF membranes were blocked with TBS-Tween 5% BSA for one hour and incubated with primary antibodies 20 (1:1000 dilution, overnight at 4° C.). After incubation with the secondary antibody (anti rabbit/mouse-horseradish peroxidase 1:1000 dilution) for 1 h at room temperature, signal was developed using SuperSignal West Pico PLUS Chemiluminescent Substrate (Thermo Fisher Scientific cat #: 34580) and captured with an ImageQuant LAS 4000 machine. To detect additional proteins, membranes were treated with Restore Western Blot Stripping Buffer (Thermo Fisher Scientific cat #: 21059), blocked, and then incubated with primary antibody.

TG2 [5] = molecular target: T1, TG2; assay: Western blot analysis of TG2 degradation in OVCAR5 cells; format: cell-based; details: for TG2 degradation with VHL ligand as competitive inhibitor: 10 μM compound 6 hrs, 10 μM VHL ligand; for TG2 degradation (western blot): 6 hours, 0.1-10 μM; for TG2 levels after longer treatment (western blot): 24 hours, single dosing; for TG2 levels at 24 hours after repeated dosing: dosed every 6-8 hours over 24 hours, 1 or 10 μM
Procedure: as §2, §3

OVCAR5 cells [6] = assay: Solid phase adhesion assay on fibronectin, OVCAR5; format: cell-based
Procedure: (§4) Briefly, wells were coated with 10 μg/ml fibronectin diluted in PBS for one hour. 30,000 cells pretreated with compounds for 6 hours were seeded and allowed to attach for 30 minutes. After washing with PBS to remove unattached cells, cells adhering to coated wells were quantified by using the CCK-8 assay (ApexBio), following the manufacturer's protocol. Relative absorbance measured at 496 nm was used to estimate the relative number of the cell attached to fibronectin coated wells.

SKOV3 cells [7] = assay: Solid phase adhesion assay on fibronectin, SKOV3; format: cell-based
Procedure: as §4

Solubility observations = format: physicochemical
full-length TG2 [8] = molecular target: T2, full-length TG2 (Homo sapiens, UniProt P21980); assay: Isothermal titration calorimetry (ITC) binding to TG2; details: for decrease in affinity relative to the parental compound MT4: ITC KD ratio versus MT4; for Kd: titration into TG2 at 30° C., PBS with 1% DMSO, read-out: equilibrium dissociation constant KD (ITC)
T2 sequence (P21980 1-687): T1 sequence (P21980 1-687)
Procedure: Sample Preparation. Protein dilutions in PBS with 1% DMSO were prepared from stock solutions of […] in PBS. The protein dilutions were initially equilibrated on ice for 5 min, then for 20 min at 30° C. The solutions were filtered using a […] Millipore centrifugal device just prior to insertion in the ITC cell. The solubility of the protein solutions was confirmed independently by DLS (data not shown), and the concentration of each solution (after filtration) was measured with a NanoDrop 2000 Instrument.
All compound dilutions were made in PBS, and the final DMSO concentration in each solution was carefully adjusted to 1%.
ITC Experiments. All ITC experiments were performed on an Affinity Low Volume instrument (Waters/TA Instruments) equipped with a fixed 198 μL gold cell. In each experiment, 320 μL of protein solution was loaded into the ITC cell, and 200 μL of the corresponding compound was in the syringe. The data were acquired using ITCRun data acquisition software. The incremental ITC experiments consisted of multiple 2 μL injections at 50-350-second intervals with a stirring speed of 100 revolutions per minute (rpm). The Auto Equilibrate function allowed for the equilibration of the baseline to a peak-to-peak standard deviation of less than 12 nW. For each compound, separate control experiments were performed to evaluate the heat of dilution. The control experiments were set with identical parameters but performed with reaction buffer instead of protein in the ITC cell and consisted of fewer (6-10) injections.
Data Analysis. ITC data were analyzed with Nano Analyze Software (Waters/TA Instruments) using the “independent sites” model after correction for heats of dilution.

SKOV3 cells [9] = assay: Cell viability assay (CCK-8), SKOV3; format: cell-based; details: 0.1-30 μM, 5 days
Procedure: (§5) The numbers of viable cells were quantified by using the CCK-8 assay (ApexBio) following the manufacturer's directions. Absorbance was measured by a spectrophotometer at 495 nm and used estimate the viability of the cells.

OVCAR5 cells [10] = assay: Cell viability assay (CCK-8), OVCAR5; format: cell-based; details: 0.1-30 μM, 5 days
Procedure: as §5

OVCAR5 cells [11] = assay: Transwell migration assay, OVCAR5; format: cell-based
Procedure: as §1

full-length TG2 [12] = molecular target: T2, full-length TG2; details: literature value (ref. 41); read-out: KD of MT4 to TG2, previously reported result; cited from earlier work

SMILES	cell migration, wound-healing assay (OVCAR5 cells [1])	cell migration, transwell migration assay (SKOV3 cells [2])	cell migration, wound-healing assay (SKOV3 cells [3])	TG2 degradation with VHL ligand as competitive inhibitor (TG2 [4])	TG2 degradation (western blot) (TG2 [4])	TG2 levels after longer treatment (western blot) (TG2 [4])	TG2 levels at 24 hours after repeated dosing (TG2 [4])	time of maximal TG2 degradation (TG2 [4]) [h]	TG2 degradation with VHL ligand as competitive inhibitor (TG2 [5])	TG2 degradation (western blot) (TG2 [5])	TG2 levels after longer treatment (western blot) (TG2 [5])	TG2 levels at 24 hours after repeated dosing (TG2 [5])	adhesion of cells to fibronectin (OVCAR5 cells [6])	adhesion of cells to fibronectin (SKOV3 cells [7])	solubility (in words) (Solubility observations)	decrease in affinity relative to the parental compound MT4 (full-length TG2 [8]) [fold]	Kd (full-length TG2 [8]) [µM]	cell death / viability (SKOV3 cells [9])	cell death / viability (OVCAR5 cells [10])	cell migration, transwell migration assay (OVCAR5 cells [11])	also measured
Cc1cc(N(C)CCOCCC(=O)N[C@H](C(=O)N2C[C@H](O)C[C@H]2C(=O)NCc2ccc(-c3scnc3C)cc2)C(C)(C)C)nc(Nc2ccc(NC(=O)Cc3ccccc3)cc2)n1 [Compound 7, (2S,4R)-1-((S)-3,3-dimethyl-2-(3-(2-(methyl(6-methyl-2-((4-(2-phenylacetamido)phenyl)amino)pyrimidin-4-yl)amino)ethoxy)propanamido)butanoyl)-4-hydroxy-N-(4-(4-methylthiazol-5-yl)benzyl)pyrrolidine-2-carboxamide]	potently inhibited the migration	similarly inhibited the migration	similarly inhibited the migration	prevented degradation of TG2; also recorded: but not when combined with VHL ligand	significantly reduced the level of TG2; also recorded: Degradation of TG2 was observed	did not induce reduction in TG2 levels	persistent and dose-dependent decreased TG2 levels	6	prevented degradation of TG2	significantly reduced the level of TG2; also recorded: Degradation of TG2 was observed	did not induce reduction in TG2 levels	persistent and dose-dependent decreased TG2 levels	significantly reduced the adhesion	significantly reduced the adhesion	poorer solubility than compound 11	> 12.8	> 100	No significant cell death; also recorded: no cell death was observed	No significant cell death; also recorded: no cell death was observed	potently inhibited the migration	
Cc1cc(N(C)CCOCCOCCOCCOCCOCCC(=O)N[C@H](C(=O)N2C[C@H](O)C[C@H]2C(=O)NCc2ccc(-c3scnc3C)cc2)C(C)(C)C)nc(Nc2ccc(NC(=O)Cc3ccccc3)cc2)n1 [Compound 11, (2S,4R)-1-((S)-22-(tert-buty)-2-(6-methyl-2-((4-(2-phenylacetamido)phenyl)amino)pyrimidin-4-yl)-20-oxo-5,8,11,14,17-pentaoxa-2,21-diazatricosan-23-oyl)-4-hydroxy-N-(4-(4-methylthiazol-5-yl)benzyl)pyrrolidine-2-carboxamide]	potently inhibited the migration	similarly inhibited the migration	similarly inhibited the migration	prevented degradation of TG2; also recorded: but not when combined with VHL ligand	significantly reduced the level of TG2; also recorded: Degradation of TG2 was observed	did not induce reduction in TG2 levels	persistent and dose-dependent decreased TG2 levels	6	prevented degradation of TG2	significantly reduced the level of TG2; also recorded: Degradation of TG2 was observed	did not induce reduction in TG2 levels	persistent and dose-dependent decreased TG2 levels	significantly reduced the adhesion	significantly reduced the adhesion		8.8	68.9	No significant cell death; also recorded: no cell death was observed	No significant cell death; also recorded: no cell death was observed	potently inhibited the migration	
Cc1cc(N(C)C)nc(Nc2ccc(NC(=O)Cc3ccccc3)cc2)n1 [MT4, reference compound]															lower solubility than the PROTAC compounds		7.8				Kd (full-length TG2 [12]): 5.1 µM
